Measured values from US11840528B2 (Hoffmann-La Roche Inc., priority 2018, dated 2023).

Tests used:
[1] = target: T1, h-GABA-A α5β3γ2 (Homo sapiens, UniProt P18507+P31644); test: [3H]flumazenil competition binding assay, membranes of HEK293 cells expressing GABAA receptors
How it was run: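 Membranes from HEK293 cells transiently expressing human α5β3γ2 GABAA receptors, in Krebs-tris buffer pH 7.5, competed against [3H]flumazenil for 1 hour at 4° C to equilibrium. Bound radioactivity collected on GF/C filters and counted by liquid scintillation; Ki values are means of two determinations.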

[2] = target: T1, h-GABA-A α5β3γ2; test: Two-electrode voltage clamp electrophysiology in Xenopus laevis oocytes expressing GABAA receptors, modulation of GABA EC20 current; format: cell-based; set-up: host or cells: Xenopus laevis oocytes micro-injected with RNA transcripts of the subunits
How it was run: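 Human α5β3γ2 GABAA receptors were expressed in Xenopus oocytes by RNA injection, with γ2 RNA 5–10-fold higher, and recorded 3–5 days later by two-electrode voltage clamp at −80 mV at room temperature. The test compound, at about 30× its Ki, was co-applied during a second GABA EC20 pulse. Efficacy is the extremum of the point-by-point ratio to the first response, expressed as 100*(Fold increase−1).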

[3] = displacement of [3H]-Flumazenil 0.5 nM, HEK293 cells expressing human receptors, mean of two determinations, Table 1
[4] = % modulation of GABA EC20 = 100*(Fold increase-1), Table 1
[5] = test compound at approx. 30 fold its Ki, GABA at EC20, Table 1

SMILES | Ki [1, 3] [nM] | Efficacy (GABA) % [2, 4] [%] | Fold increase h-GABA-A α5β3γ2 oocyte [2, 5] | Ki ([1]; reference compounds, Table 2) [nM] | Efficacy (GABA) % ([2]; reference compounds, % modulation of GABA EC20, Table 2) [%] | Fold increase h-GABA-A α5β3γ2 oocyte ([2]; reference compounds, Table 2)
Cc1ccc(-c2noc(C)c2Cn2ncc(N3C[C@@H](C)N[C@@H](C)C3)cc2=O)cn1 [Example 93, 5-[(3R,5S)-3,5-dimethylpiperazin-1-yl]-2-[[5-methyl-3-(6-methyl-3-pyridyl)isoxazol-4-yl]methyl]pyridazin-3-one] | 1.6 | 125 | 2.25 | – | – | –
Cc1ccc(-c2noc(C)c2Cn2ncc(N3CCN(C(C)C)[C@@H](C)C3)cc2=O)cn1 [Example 184, 5-[(3S)-4-isopropyl-3-methyl-piperazin-1-yl]-2-[[5-methyl-3-(6-methyl-3-pyridyl)isoxazol-4-yl]methyl]pyridazin-3-one] | 28.8 | 125 | 2.25 | – | – | –
Cc1ccc(-c2noc(C)c2Cn2ncc(N3CC(Oc4ccc(Cl)nc4)C3)cc2=O)cn1 [Example 138, 5-[3-[(6-chloro-3-pyridyl)oxy]azetidin-1-yl]-2-[[5-methyl-3-(6-methyl-3-pyridyl)isoxazol-4-yl]methyl]pyridazin-3-one] | 9.2 | 105 | 2.05 | – | – | –
Cc1ccc(-c2noc(C)c2Cn2ncc(N3CC(OC(C)(C)C)C3)cc2=O)cn1 [Example 150, 5-(3-tert-butoxyazetidin-1-yl)-2-[[5-methyl-3-(6-methyl-3-pyridyl)isoxazol-4-yl]methyl]pyridazin-3-one] | 30.4 | 85 | 1.85 | – | – | –
Cc1ccc(-c2noc(C)c2Cn2ncc(-c3ccnc(C(F)(F)F)c3)cc2=O)cn1 [Example 108, 2-((5-methyl-3-(6-methylpyridin-3-yl)isoxazol-4-yl)methyl)-5-(2-(trifluoromethyl)pyridin-4-yl)pyridazin-3(2H)-one] | 11.4 | 104 | 2.04 | – | – | –
COC1CN(c2cnn(Cc3c(-c4ccc(C)nc4)noc3C)c(=O)c2)C1 [Example 104, 5-(3-methoxyazetidin-1-yl)-2-[[5-methyl-3-(6-methyl-3-pyridyl)isoxazol-4-yl]methyl]pyridazin-3-one] | 22.9 | 134 | 2.34 | – | – | –
Cc1onc(-c2ccc(C(F)(F)F)nc2)c1Cn1ncc(N2C[C@@H](C)O[C@@H](C)C2)cc1=O [Example 39, 5-(cis-2,6-dimethylmorpholin-4-yl)-2-[[5-methyl-3-[6-(trifluoromethyl)-3-pyridyl]isoxazol-4-yl]methyl]pyridazin-3-one] | 3.2 | 198 | 2.98 | – | – | –
CCOC1CN(c2cnn(Cc3c(-c4cnc(C)c(F)c4)noc3C)c(=O)c2)C1 [Example 213, 5-(3-ethoxyazetidin-1-yl)-2-((3-(5-fluoro-6-methylpyridin-3-yl)-5-methylisoxazol-4-yl)methyl)pyridazin-3(2H)-one] | 32.8 | 108 | 2.08 | – | – | –
Cc1ccc(-c2noc(C)c2Cn2ncc(N3CCC(n4c(C)nnc4C)CC3)cc2=O)cn1 [Example 54, 5-[4-(3,5-dimethyl-1,2,4-triazol-4-yl)-1-piperidyl]-2-[[5-methyl-3-(6-methyl-3-pyridyl)isoxazol-4-yl]methyl]pyridazin-3-one] | 10.8 | 175 | 2.75 | – | – | –
Cc1ccc(-c2noc(C)c2Cn2ncc(-c3ccnc(OC4CCOC4)c3)cc2=O)cn1 (stereo not drawn) [Example 177, 2-((5-methyl-3-(6-methylpyridin-3-yl)isoxazol-4-yl)methyl)-5-(2-((tetrahydrofuran-3-yl)oxy)pyridin-4-yl)pyridazin-3(2H)-one] | 18.4 | 121 | 2.21 | – | – | –
Cc1onc(-c2ccccc2)c1COc1ccc(N2CCOCC2)nn1 [RO-036, reference compound] | – | – | – | 9.45 | −28 | 0.72
Cc1ccc(-c2noc(C)c2Cn2ncc(N3CC(Oc4ccccc4F)C3)cc2=O)cn1 [Example 128, 5-[3-(2-fluorophenoxy)azetidin-1-yl]-2-[[5-methyl-3-(6-methyl-3-pyridyl)isoxazol-4-yl]methyl]pyridazin-3-one] | 11.1 | 120 | 2.2 | – | – | –

Second part, led by results:

Ki [1, 3] [nM] | Efficacy (GABA) % [2, 4] [%] | Fold increase h-GABA-A α5β3γ2 oocyte [2, 5] | SMILES | Ki ([1]; reference compounds, Table 2) [nM] | Efficacy (GABA) % ([2]; reference compounds, % modulation of GABA EC20, Table 2) [%] | Fold increase h-GABA-A α5β3γ2 oocyte ([2]; reference compounds, Table 2)
45.1 | 127 | 2.27 | Cc1onc(-c2ccc(Cl)nc2)c1Cn1ncc(N2CC3(C[C@@H](F)CO3)C2)cc1=O [Example 230, (R)-2-((3-(6-chloropyridin-3-yl)-5-methylisoxazol-4-yl)methyl)-5-(7-fluoro-5-oxa-2-azaspiro[3.4]octan-2-yl)pyridazin-3(2H)-one] | – | – | –
19.3 | 132 | 2.32 | COC1CCN(c2cnn(Cc3c(-c4ccc(C)nc4)noc3C)c(=O)c2)CC1 [Example 139, 5-(4-methoxy-1-piperidyl)-2-[[5-methyl-3-(6-methyl-3-pyridyl)isoxazol-4-yl]methyl]pyridazin-3-one] | – | – | –
27.6 | 147 | 2.47 | Cc1onc(-c2ccc(Cl)nc2)c1Cn1ncc(N2CC(OCC(F)(F)F)C2)cc1=O [Example 254, 2-((3-(6-chloropyridin-3-yl)-5-methylisoxazol-4-yl)methyl)-5-(3-(2,2,2-trifluoroethoxy)azetidin-1-yl)pyridazin-3(2H)-one] | – | – | –
61.2 | 110 | 2.1 | Cc1ncc(-c2noc(C)c2Cn2ncc(N3CC4(CCCO4)C3)cc2=O)cc1F [Example 208, 2-((3-(5-fluoro-6-methylpyridin-3-yl)-5-methylisoxazol-4-yl)methyl)-5-(5-oxa-2-azaspiro[3.4]octan-2-yl)pyridazin-3(2H)-one] | – | – | –
52.7 | 94 | 1.94 | Cc1onc(-c2ccc(Cl)nc2)c1Cn1ncc(N2CC3(CCCO3)C2)cc1=O [Example 209, 2-((3-(6-chloropyridin-3-yl)-5-methylisoxazol-4-yl)methyl)-5-(5-oxa-2-azaspiro[3.4]octan-2-yl)pyridazin-3(2H)-one] | – | – | –
43.1 | 76 | 1.76 | Cc1onc(-c2ccc(Cl)nc2)c1Cn1ncc(N2CC3(CCC(C(F)(F)F)CO3)C2)cc1=O (single isomer, unassigned) [Example 323] | – | – | –
37 | 104 | 2.04 | Cc1onc(-c2ccc(Cl)nc2)c1Cn1ncc(N2CC3(C[C@H](F)CO3)C2)cc1=O [Example 232, (S)-2-((3-(6-chloropyridin-3-yl)-5-methylisoxazol-4-yl)methyl)-5-(7-fluoro-5-oxa-2-azaspiro[3.4]octan-2-yl)pyridazin-3(2H)-one] | – | – | –
4.1 | 226 | 3.26 | Cc1ccc(-c2noc(C)c2Cn2ncc(N3CC(O)(C(F)(F)F)C3)cc2=O)cn1 [Example 117, 5-(3-hydroxy-3-(trifluoromethyl)azetidin-1-yl)-2-((5-methyl-3-(6-methylpyridin-3-yl)isoxazol-4-yl)methyl)pyridazin-3(2H)-one] | – | – | –
16.6 | 111 | 2.11 | CO[C@H]1COC2(C1)CN(c1cnn(Cc3c(-c4ccc(C)nc4)noc3C)c(=O)c1)C2 [Example 134, 5-[(7R)-7-methoxy-5-oxa-2-azaspiro[3.4]octan-2-yl]-2-[[5-methyl-3-(6-methyl-3-pyridyl)isoxazol-4-yl]methyl]pyridazin-3-one] | – | – | –
27.6 | 215 | 3.15 | Cc1onc(-c2ccc(Cl)nc2)c1Cn1ncc(N2CCN3C(=O)CCC3C2)cc1=O (stereo not drawn) [Example 223, 2-(1-((3-(6-chloropyridin-3-yl)-5-methylisoxazol-4-yl)methyl)-6-oxo-1,6-dihydropyridazin-4-yl)hexahydropyrrolo[1,2-a]pyrazin-6(2H)-one] | – | – | –
7.5 | 166 | 2.66 | Cc1nonc1N1CCN(c2cnn(Cc3c(-c4ccc(Cl)nc4)noc3C)c(=O)c2)CC1 [Example 280, 2-((3-(6-chloropyridin-3-yl)-5-methylisoxazol-4-yl)methyl)-5-(4-(4-methyl-1,2,5-oxadiazol-3-yl)piperazin-1-yl)pyridazin-3(2H)-one] | – | – | –
25.4 | 116 | 2.16 | Cc1onc(-c2ccc(Cl)nc2)c1Cn1ncc(N2CC3(CCC(F)CO3)C2)cc1=O (single isomer, unassigned) [Example 298] | – | – | –
15.2 | 107 | 2.07 | Cc1ccc(-c2noc(C)c2Cn2ncc(N3CCC4(CC3)COC4)cc2=O)cn1 [Example 46, 2-[[5-methyl-3-(6-methyl-3-pyridyl)isoxazol-4-yl]methyl]-5-(2-oxa-7-azaspiro[3.5]nonan-7-yl)pyridazin-3-one] | – | – | –
